# Measured values reported in ChEMBL document CHEMBL1201862, “PubChem BioAssay data set” (2004).
# Active and inactive are the calls of the source.
# Key:
# Genome polyprotein [1] = molecular target: Genome polyprotein (Hepatitis C virus, UniProt Q2Q167); experiment: HCV core protein dimerization inhibitors, dose response, biochemical, TR-FRET (AID 2159); parameters: species or system Hepacivirus hominis;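 also: blocks dimerization of HCV core protein measured by TR-FRET between tagged core106 pairs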
# Genome polyprotein (Hepatitis C virus, UniProt Q2Q167), sequence (Q2Q167 whole entry): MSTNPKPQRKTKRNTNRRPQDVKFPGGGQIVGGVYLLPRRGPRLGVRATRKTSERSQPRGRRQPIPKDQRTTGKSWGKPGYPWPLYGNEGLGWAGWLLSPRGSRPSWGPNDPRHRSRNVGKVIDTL
# [2] = molecular target: Heat shock protein HSP 90-alpha (Homo sapiens, UniProt P07900); experiment: Luminescence-based dose response biochemical high throughput screening assay for inhibitors of the Heat Shock Protein 90 (HSP90). [Related pubchem assays: 1831 (Summary AID.), 1846 (Confirmation screen.), 1789 (Primary screen.)]
# [3] = molecular target: T1, RNA-binding protein pos-1 (Caenorhabditis elegans, UniProt G5EF15); experiment: inhibitors of POS-1/mex-3 RNA binding, dose response, biochemical, fluorescence polarization (AID 1964);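 also: purified POS-1 fused to maltose binding protein made in E. coli; potency of compounds blocking POS-1 binding to fluorescent RNA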
# T1 sequence (G5EF15 whole entry): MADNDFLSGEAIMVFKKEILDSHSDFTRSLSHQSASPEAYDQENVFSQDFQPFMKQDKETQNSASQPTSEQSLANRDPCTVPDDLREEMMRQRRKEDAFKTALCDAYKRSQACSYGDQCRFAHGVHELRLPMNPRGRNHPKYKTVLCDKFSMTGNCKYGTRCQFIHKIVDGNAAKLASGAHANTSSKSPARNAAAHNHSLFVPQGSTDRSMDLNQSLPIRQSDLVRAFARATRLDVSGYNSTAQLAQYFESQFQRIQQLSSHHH
# [4] = molecular target: T2, Zinc finger protein mex-5 (Caenorhabditis elegans, UniProt Q9XUB2); experiment: MEX-5/TCR-2 RNA interaction inhibitors, dose response, biochemical, C. elegans, fluorescence polarization (AID 1960)
# T2 sequence (Q9XUB2 whole entry): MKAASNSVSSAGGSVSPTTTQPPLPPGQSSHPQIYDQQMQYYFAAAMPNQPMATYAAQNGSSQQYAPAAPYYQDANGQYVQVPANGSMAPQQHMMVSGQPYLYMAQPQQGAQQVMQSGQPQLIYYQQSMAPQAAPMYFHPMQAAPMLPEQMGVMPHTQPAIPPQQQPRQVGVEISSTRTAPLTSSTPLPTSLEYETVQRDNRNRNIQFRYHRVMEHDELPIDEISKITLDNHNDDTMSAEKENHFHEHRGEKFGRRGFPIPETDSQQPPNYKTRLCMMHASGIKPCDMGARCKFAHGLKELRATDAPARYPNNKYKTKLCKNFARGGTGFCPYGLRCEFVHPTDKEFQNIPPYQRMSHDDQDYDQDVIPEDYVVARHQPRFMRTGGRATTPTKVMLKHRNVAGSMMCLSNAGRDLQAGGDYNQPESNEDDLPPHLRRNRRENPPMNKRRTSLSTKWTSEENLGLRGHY
# [5] = Luminescent dose response cell-based high throughput screening assay for inhibitors of the Janus kinase 2 mutant JAK2V617F. [Related pubchem assays: 1446 (Primary screen.), 1521 (Confirmation assay.), 1486 (Counter screen.)]; assay type: functional
# NADPH oxidase 1 [6] = molecular target: T3, NADPH oxidase 1 (Homo sapiens, UniProt Q9Y5S8); assay type: functional, cell-based
# T3 sequence (Q9Y5S8 whole entry): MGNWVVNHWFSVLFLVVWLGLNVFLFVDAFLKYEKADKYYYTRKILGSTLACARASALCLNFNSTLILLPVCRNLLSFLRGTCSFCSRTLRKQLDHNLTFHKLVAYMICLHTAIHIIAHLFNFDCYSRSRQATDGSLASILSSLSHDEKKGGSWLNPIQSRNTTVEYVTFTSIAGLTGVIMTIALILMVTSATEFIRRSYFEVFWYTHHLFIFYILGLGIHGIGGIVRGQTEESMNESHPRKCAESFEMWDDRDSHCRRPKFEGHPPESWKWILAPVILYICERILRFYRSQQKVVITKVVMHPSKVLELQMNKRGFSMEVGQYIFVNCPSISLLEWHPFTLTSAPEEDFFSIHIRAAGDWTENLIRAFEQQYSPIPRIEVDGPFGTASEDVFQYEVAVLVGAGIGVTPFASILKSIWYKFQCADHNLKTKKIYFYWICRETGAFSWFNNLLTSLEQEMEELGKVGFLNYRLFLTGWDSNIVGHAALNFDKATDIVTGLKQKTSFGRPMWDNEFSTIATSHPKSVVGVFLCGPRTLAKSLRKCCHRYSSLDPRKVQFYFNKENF
# NADPH oxidase 1 [7] = molecular target: T3, NADPH oxidase 1; experiment: Late-stage luminescence-based cell-based dose response assay to identify inhibitors of NADPH oxidase 1 (NOX1): Purchased analogs 2.; assay type: functional
# [8] = molecular target: E3 ubiquitin-protein ligase Mdm2 (Homo sapiens, UniProt Q00987); experiment: enhancers of MDM2-luciferase reporter signal, concentration-effect titration, project on inhibitors of MDM2 ubiquitin ligase, cellular assay, luminescent readout, 384-well plate format (AID 1394); assay type: functional;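 also: MDM2 E3 inhibitors raise luminescence so EC50 is for signal enhancement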
# E3 ubiquitin-protein ligase Mdm2, sequence (Q00987 whole entry, the tested form may be a part): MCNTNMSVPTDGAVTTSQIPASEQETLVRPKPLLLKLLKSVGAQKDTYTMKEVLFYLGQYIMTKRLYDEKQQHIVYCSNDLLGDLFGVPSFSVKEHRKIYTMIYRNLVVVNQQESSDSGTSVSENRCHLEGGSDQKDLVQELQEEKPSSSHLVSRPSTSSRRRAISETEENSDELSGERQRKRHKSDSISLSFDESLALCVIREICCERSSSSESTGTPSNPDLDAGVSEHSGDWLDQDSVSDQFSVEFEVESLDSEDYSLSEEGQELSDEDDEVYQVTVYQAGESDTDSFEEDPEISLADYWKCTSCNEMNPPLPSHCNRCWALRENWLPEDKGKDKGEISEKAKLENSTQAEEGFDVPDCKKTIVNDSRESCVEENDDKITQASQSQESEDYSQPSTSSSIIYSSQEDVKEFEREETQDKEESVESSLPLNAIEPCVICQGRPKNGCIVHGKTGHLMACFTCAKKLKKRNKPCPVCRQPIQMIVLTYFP
# [9] = molecular target: T4, Type-1 angiotensin II receptor (Homo sapiens, UniProt P30556); experiment: AT1 receptor agonists, dose response, selectivity assay for APJ receptor agonist project, cell-based, uHTS hits (AID 488865); assay type: functional;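 also: beta-arrestin recruitment to AT1 measured by enzyme fragment complementation luminescence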
# T4 sequence (P30556 whole entry): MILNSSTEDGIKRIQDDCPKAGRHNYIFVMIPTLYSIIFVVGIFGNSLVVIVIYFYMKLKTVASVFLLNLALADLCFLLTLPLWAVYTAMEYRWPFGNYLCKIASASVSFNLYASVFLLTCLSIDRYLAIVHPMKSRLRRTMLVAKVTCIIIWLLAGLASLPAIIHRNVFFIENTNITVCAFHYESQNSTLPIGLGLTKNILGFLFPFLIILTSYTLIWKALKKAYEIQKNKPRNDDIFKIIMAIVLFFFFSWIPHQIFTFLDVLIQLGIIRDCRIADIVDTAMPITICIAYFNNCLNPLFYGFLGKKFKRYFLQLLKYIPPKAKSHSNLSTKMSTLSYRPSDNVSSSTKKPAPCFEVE
# Vero [10] = experiment: host cell cytotoxicity of antiviral hits, dose response, cytotoxicity control for West Nile virus antiviral project, secondary assay (AID 1650); assay type: functional; settings: Chlorocebus sabaeus
# [11] = M. tuberculosis growth inhibition, HTS (AID 449762); assay type: functional
# [12] = M. tuberculosis H37Rv growth inhibitors, H37Rv strain (AID 1626); assay type: functional
# Leucine aminopeptidase = molecular target: T5, Leucine aminopeptidase (Plasmodium falciparum 3D7, UniProt Q8IL11); experiment: P. falciparum M17LAP inhibitors, primary screen, biochemical, fluorogenic H-Leu-NHMec substrate, 1536-well (AID 1619); assay type: functional
# T5 sequence (Q8IL11 whole entry): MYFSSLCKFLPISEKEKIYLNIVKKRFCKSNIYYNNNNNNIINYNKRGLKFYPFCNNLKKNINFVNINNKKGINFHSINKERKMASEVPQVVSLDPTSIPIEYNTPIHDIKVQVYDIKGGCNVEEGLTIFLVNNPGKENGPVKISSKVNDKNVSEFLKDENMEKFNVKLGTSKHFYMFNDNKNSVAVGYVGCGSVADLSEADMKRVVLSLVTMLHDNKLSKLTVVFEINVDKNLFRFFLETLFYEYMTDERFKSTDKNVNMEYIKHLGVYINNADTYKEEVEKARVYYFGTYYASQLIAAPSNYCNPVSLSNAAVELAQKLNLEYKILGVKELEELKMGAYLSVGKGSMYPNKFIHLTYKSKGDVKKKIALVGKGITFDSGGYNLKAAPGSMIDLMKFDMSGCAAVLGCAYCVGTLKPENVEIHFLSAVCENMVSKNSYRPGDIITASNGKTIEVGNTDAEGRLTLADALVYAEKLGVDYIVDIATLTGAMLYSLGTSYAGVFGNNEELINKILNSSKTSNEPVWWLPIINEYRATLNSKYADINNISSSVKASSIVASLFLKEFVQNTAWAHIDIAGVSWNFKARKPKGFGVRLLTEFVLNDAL
# [13] = molecular target: T6, Probable nicotinate-nucleotide adenylyltransferase (Staphylococcus aureus (strain N315), UniProt P65502); assay type: functional, Staphylococcus aureus subsp. aureus N315; settings: read-out: IC50_Mean;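 as to IC50 Mean: confirmatory dose-response retesting of NadD inhibitor hits first found in an ultra-high-throughput screen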
# T6 sequence (P65502 whole entry): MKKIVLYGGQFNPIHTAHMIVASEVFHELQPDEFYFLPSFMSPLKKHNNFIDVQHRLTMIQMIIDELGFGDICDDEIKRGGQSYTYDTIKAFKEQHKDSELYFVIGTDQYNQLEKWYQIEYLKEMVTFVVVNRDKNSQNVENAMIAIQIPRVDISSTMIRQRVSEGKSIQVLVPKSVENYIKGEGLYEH
# [14] = molecular target: T6, Probable nicotinate-nucleotide adenylyltransferase; assay type: functional, Staphylococcus aureus subsp. aureus N315
# Aspartyl aminopeptidase = Aspartyl aminopeptidase (Plasmodium falciparum 3D7, UniProt Q8I2J3); experiment: Counterscreen for inhibitors of M1 and M17 aminopeptidases: QFRET-based biochemical high throughput dose response assay for inhibitors of the Plasmodium falciparum M18 Aspartyl Aminopeptidase (PFM18AAP). [Related PubChem assays: 1619 (Screening assay (M17LAP inhibitors).), 1445 (Screening assay (M1AAP inhibitors).)]
# Aspartyl aminopeptidase, sequence (Q8I2J3 whole entry): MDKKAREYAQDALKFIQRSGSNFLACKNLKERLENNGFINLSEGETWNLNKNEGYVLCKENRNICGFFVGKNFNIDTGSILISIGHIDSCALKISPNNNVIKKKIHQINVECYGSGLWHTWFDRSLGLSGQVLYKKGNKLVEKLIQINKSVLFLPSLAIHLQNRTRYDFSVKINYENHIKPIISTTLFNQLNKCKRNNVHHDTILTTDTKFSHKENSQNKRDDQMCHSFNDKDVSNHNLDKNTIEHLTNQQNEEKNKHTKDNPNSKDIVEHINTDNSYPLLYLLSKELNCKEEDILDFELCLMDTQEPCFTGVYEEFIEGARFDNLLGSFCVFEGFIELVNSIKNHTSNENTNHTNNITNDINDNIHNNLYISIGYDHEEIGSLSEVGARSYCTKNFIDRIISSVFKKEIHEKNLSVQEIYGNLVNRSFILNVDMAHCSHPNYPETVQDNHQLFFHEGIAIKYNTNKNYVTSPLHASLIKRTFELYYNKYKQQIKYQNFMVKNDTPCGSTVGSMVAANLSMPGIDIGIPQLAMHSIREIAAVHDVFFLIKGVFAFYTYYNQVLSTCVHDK
# Procathepsin L = Procathepsin L (Homo sapiens, UniProt P07711); experiment: cathepsin L inhibitors, dose response, counter-screen for M1/M17 aminopeptidase inhibitor project, biochemical, QFRET, 1536-well (AID 2214)
# Procathepsin L, sequence (P07711 whole entry): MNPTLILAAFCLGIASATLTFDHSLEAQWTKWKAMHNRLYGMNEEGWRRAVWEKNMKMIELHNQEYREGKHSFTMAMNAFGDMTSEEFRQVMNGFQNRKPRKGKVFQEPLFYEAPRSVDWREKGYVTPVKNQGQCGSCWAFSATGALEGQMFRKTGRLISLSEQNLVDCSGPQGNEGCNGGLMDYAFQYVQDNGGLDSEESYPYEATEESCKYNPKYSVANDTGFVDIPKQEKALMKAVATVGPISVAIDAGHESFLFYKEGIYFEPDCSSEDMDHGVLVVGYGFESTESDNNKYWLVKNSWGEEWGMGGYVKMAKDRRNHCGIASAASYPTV
# [15] = yeast RAM network inhibitors, dose response, S. cerevisiae (AID 1307); assay type: functional
# Vero [16] = experiment: Vero cell cytotoxicity, cytotoxicity control for flavivirus capping enzyme inhibitors (AID 588742); assay type: functional; settings: Chlorocebus sabaeus
# Nonstructural protein 1 = Nonstructural protein 1 (Influenza A virus, UniProt Q194T2); assay type: functional, Influenza A virus (A/California/07/2009(H1N1))
# Nonstructural protein 1, sequence (Q194T2 whole entry): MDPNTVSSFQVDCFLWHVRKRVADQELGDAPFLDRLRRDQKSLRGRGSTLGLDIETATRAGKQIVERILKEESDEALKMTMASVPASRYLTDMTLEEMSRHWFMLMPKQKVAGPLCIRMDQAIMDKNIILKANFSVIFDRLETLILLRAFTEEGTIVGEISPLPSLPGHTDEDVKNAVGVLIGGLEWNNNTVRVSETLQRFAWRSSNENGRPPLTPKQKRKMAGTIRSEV
# Genome polyprotein [17] = molecular target: Genome polyprotein (dengue virus type 2, UniProt P29990); experiment: Dengue-2 NS5 methyltransferase inhibitors, primary screen, biochemical, confirmation dose response (AID 588689); assay type: functional
# Genome polyprotein (dengue virus type 2, UniProt P29990), sequence (P29990 2492-3391 limits assumed): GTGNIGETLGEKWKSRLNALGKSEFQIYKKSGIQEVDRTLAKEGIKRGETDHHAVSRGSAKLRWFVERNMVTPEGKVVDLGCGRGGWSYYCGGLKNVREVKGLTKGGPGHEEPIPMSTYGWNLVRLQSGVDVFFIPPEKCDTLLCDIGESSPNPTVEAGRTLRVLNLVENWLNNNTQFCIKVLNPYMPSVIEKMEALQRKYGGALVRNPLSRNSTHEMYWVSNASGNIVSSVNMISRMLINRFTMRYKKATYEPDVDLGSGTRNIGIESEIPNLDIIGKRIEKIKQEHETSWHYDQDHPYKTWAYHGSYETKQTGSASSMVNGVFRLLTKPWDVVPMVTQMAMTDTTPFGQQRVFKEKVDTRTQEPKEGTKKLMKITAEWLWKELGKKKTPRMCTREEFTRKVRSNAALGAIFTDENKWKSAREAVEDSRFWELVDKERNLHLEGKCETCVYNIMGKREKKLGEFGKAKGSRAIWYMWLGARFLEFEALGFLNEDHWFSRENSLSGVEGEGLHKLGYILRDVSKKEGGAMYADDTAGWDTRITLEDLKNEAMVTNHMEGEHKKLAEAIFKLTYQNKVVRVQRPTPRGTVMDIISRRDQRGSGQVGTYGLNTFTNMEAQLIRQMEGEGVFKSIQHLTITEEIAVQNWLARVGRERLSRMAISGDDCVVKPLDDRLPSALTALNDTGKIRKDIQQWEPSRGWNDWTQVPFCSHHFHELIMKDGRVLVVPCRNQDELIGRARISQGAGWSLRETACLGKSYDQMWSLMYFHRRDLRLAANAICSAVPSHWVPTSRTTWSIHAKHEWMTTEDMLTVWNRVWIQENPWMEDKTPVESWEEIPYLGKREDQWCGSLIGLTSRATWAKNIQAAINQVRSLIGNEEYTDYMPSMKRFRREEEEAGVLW
# [18] = molecular target: T7, Histone-lysine N-methyltransferase NSD2 (Homo sapiens, UniProt O96028); assay type: biochemical
# T7 sequence (O96028 whole entry): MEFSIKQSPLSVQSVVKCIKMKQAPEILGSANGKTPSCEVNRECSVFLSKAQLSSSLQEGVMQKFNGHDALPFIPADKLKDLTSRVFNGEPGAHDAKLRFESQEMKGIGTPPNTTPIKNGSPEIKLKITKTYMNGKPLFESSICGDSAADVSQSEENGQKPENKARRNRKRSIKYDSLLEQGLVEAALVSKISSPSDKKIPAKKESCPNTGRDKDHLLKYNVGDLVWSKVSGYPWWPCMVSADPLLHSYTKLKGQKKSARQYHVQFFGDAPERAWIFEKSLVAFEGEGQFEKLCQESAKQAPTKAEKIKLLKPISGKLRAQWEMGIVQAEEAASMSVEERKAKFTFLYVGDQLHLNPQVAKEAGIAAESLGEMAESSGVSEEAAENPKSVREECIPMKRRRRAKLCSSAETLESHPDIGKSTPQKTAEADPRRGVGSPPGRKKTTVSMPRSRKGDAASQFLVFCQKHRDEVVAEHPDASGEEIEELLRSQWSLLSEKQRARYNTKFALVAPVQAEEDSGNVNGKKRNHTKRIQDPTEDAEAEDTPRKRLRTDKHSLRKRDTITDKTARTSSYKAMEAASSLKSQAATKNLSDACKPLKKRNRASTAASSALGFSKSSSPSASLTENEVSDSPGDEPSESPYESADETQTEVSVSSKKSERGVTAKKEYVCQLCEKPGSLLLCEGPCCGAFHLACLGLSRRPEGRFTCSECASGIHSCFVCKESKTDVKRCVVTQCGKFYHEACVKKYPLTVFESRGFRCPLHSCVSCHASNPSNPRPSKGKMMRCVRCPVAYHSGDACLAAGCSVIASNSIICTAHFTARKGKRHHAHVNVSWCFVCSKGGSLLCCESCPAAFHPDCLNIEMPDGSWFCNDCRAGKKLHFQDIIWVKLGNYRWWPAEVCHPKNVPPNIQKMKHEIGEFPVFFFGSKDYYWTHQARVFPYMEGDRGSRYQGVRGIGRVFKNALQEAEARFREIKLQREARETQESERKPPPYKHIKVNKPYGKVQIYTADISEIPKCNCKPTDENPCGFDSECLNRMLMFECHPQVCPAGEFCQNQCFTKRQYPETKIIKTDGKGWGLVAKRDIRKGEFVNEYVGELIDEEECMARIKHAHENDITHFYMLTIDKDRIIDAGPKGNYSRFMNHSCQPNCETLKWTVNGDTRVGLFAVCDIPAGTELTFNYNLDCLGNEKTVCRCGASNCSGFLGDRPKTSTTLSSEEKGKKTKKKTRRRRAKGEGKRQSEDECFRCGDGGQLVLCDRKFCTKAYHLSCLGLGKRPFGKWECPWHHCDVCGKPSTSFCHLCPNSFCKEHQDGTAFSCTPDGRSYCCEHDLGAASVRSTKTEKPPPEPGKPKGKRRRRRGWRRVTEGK
# [19] = molecular target: Eukaryotic translation initiation factor 4E (Mus musculus, UniProt P63073); experiment: eIF4E–eIF4G protein interaction inhibitors, dose response, biochemical, TR-FRET (AID 855); assay type: functional;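 also: potency for disrupting eIF4E binding to eIF4GI seen as loss of FRET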
# Eukaryotic translation initiation factor 4E, sequence (P63073 whole entry): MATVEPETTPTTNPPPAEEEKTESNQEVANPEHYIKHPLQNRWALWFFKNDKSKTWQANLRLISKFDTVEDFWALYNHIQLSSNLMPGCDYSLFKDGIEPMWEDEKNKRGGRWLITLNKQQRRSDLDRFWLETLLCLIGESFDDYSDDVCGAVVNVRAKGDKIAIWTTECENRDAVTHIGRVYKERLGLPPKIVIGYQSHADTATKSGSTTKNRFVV
compound,measurement,setting,value
NS(=O)(=O)c1ccc(NC(=O)c2ccc(S(=O)(=O)N3CCc4ccccc43)cc2)cc1,IC50,Genome polyprotein [1],> 49.8 µM (not active)
O=c1oc2ccc(Cl)cc2nc1/C=C(\O)c1ccco1,IC50,[2],2.73 µM (active)
same,EC50,[3],> 300 µM (not active)
same,EC50,[4],> 300 µM (not active)
same,IC50,[5],1.5 µM (active)
C(=N\Nc1ccccc1)/c1ccccc1,IC50,NADPH oxidase 1 [6],13 µM (active)
CC(=O)Nc1ccc(CC(=O)Nc2ccc(Oc3ccc(Br)cc3)cc2)cc1,IC50,NADPH oxidase 1 [7],> 17 µM (not active)
CC(=O)c1ccc(OCC(O)Cn2nnc3ccccc32)cc1 (stereo not drawn),EC50,[8],12.7 µM (not active)
CCOC(=O)N1CCN(S(=O)(=O)c2ccc(C(=O)N(CCCN(C)C)c3nc4ccc(Cl)cc4s3)cc2)CC1,EC50,[9],> 100 µM (inactive)
same,CC50,Vero [10],10.1 µM (active)
CCOC(=O)N1CCN=C1SCc1ccc(C(F)(F)F)cc1,IC50,[11],> 100 µM (active)
same,IC50,[12],> 100 µM (active)
CCn1c2ccccc2c2cc(NC(=O)CSc3nccc(O)n3)ccc21,IC50,Leucine aminopeptidase,1.41 µM (active)
same,IC50,[13],42.4 µM (active)
same,IC50,[14],15.3 µM (active)
same,IC50,Aspartyl aminopeptidase,> 73.5 µM (not active)
same,IC50,Procathepsin L,> 59.6 µM (not active)
Cc1cc(C)c(Nc2cc(S(=O)(=O)O)c(N)c3c2C(=O)c2ccccc2C3=O)c(C)c1 [ACID BLUE 129],IC50,[15],139 µM (active)
same,CC50,Vero [16],> 40 µM (active)
same,IC50,Nonstructural protein 1,3.96 µM (active)
same,IC50,Genome polyprotein [17],21.5 µM (active)
same,AC50,[18],3.75 µM (active)
same,IC50,[19],26.1 µM (inactive)
